Source: US20150005288A1, “SUBSTITUTED PHENYLIMIDAZOPYRAZOLES AND USE THEREOF” (Bayer Intellectual Property GmbH, priority 2012, published 2015)
pIC50: −log10 of the molar value.

Experiments:
[1] = biological target: T1, intracellular domain of human Tie2 (GST fusion protein) (Homo sapiens, UniProt Q02763); test: Tie2 kinase assay (Tie2-TR-FRET); assay type: biochemical; settings: ATP concentration 1 mM, in some cases means of several independent determinations
T1 construct: intracellular domain of human Tie2 (amino acids 776-1124); made in house; host or cells: Baculovirus-infected insect cells (Hi5)
T1 sequence (Q02763 776-1124): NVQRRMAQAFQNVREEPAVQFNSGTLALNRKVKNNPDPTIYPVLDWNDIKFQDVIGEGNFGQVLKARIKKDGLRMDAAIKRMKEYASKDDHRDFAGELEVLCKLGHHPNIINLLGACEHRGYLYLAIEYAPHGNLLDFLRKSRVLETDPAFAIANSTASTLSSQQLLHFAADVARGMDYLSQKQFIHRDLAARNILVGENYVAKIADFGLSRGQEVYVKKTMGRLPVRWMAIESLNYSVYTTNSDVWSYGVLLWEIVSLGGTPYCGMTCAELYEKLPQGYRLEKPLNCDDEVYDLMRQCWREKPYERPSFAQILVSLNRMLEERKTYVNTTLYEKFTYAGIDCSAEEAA
Method in brief: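 High ATP (1 mM final) with 1 μM biotin-peptide substrate; reaction 60 min at 22 °C after 15 min compound pre-binding to GST-Tie2 (aa 776-1124) in HEPES pH 7 with Mg/Mn. Phosphopeptide detected by TR-FRET emission ratio 665/620 nm. IC50 from 4-parameter fit over 20 μM to 0.073 nM, duplicates.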

endogenous Tie2 receptor = biological target: T2, endogenous Tie2 receptor (Homo sapiens, UniProt Q02763); test: Tie2-pTyr-ELISA: autophosphorylation of endogenous Tie2 receptor in HUVEC; assay type: cell-based; settings: autophosphorylation elevated by sodium orthovanadate (4 mM), Tie2/phosphotyrosine sandwich ELISA, from 2-7 independent measurements
T2 construct: the endogenous Tie2 receptor; host or cells: HUVEC (human umbilical vein endothelial cells)
T2 sequence (Q02763 23-1124): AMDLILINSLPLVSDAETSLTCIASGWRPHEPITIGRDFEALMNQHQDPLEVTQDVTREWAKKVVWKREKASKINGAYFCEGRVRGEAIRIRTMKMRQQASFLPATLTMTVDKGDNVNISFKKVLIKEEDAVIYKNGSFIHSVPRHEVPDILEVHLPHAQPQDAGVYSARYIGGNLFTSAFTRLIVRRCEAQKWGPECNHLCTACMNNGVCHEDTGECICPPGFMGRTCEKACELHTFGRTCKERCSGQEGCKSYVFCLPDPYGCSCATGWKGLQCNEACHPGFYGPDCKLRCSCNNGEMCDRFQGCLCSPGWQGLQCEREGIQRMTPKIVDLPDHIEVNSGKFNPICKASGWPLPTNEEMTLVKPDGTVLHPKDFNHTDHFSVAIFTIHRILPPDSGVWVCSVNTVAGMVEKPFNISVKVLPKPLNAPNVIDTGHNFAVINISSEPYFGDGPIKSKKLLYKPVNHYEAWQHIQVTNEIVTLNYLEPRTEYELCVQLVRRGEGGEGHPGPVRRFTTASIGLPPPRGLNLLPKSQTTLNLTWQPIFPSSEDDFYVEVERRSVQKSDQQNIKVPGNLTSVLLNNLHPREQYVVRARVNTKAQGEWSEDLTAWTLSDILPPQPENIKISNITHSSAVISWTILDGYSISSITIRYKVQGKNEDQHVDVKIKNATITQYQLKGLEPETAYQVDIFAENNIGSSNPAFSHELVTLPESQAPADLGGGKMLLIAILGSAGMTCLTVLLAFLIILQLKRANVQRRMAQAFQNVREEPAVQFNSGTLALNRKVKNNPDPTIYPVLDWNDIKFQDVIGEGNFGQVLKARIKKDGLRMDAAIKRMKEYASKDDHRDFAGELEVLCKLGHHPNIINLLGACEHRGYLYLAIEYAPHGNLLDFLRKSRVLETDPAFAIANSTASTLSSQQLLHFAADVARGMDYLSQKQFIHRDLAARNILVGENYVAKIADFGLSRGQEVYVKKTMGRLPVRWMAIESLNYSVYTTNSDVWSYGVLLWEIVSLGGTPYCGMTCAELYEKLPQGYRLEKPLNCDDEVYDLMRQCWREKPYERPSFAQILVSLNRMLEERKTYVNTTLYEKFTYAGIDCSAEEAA
Procedure: The cellular activity of the compounds according to the invention as Tie2 kinase inhibitors was determined in human endothelial cells (HUVEC) by measuring the inhibition of the autophosphorylation, elevated by treatment with sodium orthovanadate, of the endogenous Tie2 receptor by means of a Tie2/phosphotyrosine sandwich ELISA.
Human endothelial cells (human umbilical vein endothelial cells, HUVEC) were obtained from Cellsystems (FC-0003), cultured in Vasculife VEGF complete medium (Cellsystems, LL-1020) with 2% foetal calf serum (FCS) at 37° C./5% CO2 and used for Tie2-ELISA measurements up to passage 8.
HUVEC were plated in a culture volume of 100 μl of Vasculife VEGF complete medium at a cell density of 30 000 cells per well in transparent collagen-coated 96-well cell culture plates (Falcon, #353075) and incubated in an incubation cabinet at 37° C./5% CO2 overnight. The test substances dissolved in DMSO were used to prepare in each case one dilution series in Vasculife VEGF low-serum medium [basal medium with LifeFactors (Cellsystems, LM-0002), without FCS, with 0.1% BSA] without sodium orthovanadate and one dilution series in Vasculife VEGF low-serum-medium with 8 mM sodium orthovanadate in the desired concentrations in the range from 10 pM to 10 μM, the final DMSO concentration being 1%. After removal of the complete medium, 100 μl per well of the dilute substances in low-serum medium without sodium orthovanadate were pipetted onto the cells, and the plates were incubated in an incubation cabinet at 37° C./5% CO2 for 10 min. A further 100 μl of the same substance dilution in low-serum medium with 8 mM sodium orthovanadate were then pipetted into the respective well and the cells were incubated in a volume of now 200 μl in the presence of 4 mM sodium orthovanadate at the desired substance concentration in an incubation cabinet at 37° C./5% CO2 for a further 20 min. The cell supernatant of the plates was then removed and the cells were washed once with 250 μl per well of cold PBS which contained 4 mM sodium orthovanadate. 120 μl of Duschl lysis buffer [50 mM HEPES pH 7.2, 150 mM NaCl, 1 mM MgCl2, 10% glycerol, 1.5% Triton X-100, 4 mM sodium orthovanadate, 250 μl S-PIC phosphatase inhibitor cocktail 2 (Sigma, P5726) and 1 tablet of Complete proteinase inhibitor mixture (Roche, #1836145) per 10 ml] were then added to the cells in each well. The plates were shaken briefly and then incubated on ice for 20 min, and the lysates in the cell culture plates were then frozen at −80° C. for at least 30 min.
For measuring the autophosphorylation of the endogenous Tie2 receptor in the cell lysates prepared, a self-prepared anti-Tie2 antibody directed against the N-terminus of the Tie-2 receptor (1.09 mg/ml) and an HRP-coupled anti-phosphotyrosine antibody (Sigma, A4595, clone pY-20) were used. White 96-well ELISA plates (Lumitrac600, Greiner, #655074) were incubated with 100 μl per well of a 1:1000 dilution of the anti-Tie2 antibody in coating buffer [15 mM Na2CO3, 35 mM NaHCO3, pH 9.6] with shaking at 4° C. overnight. The coated ELISA plates were washed three times with 250 μl PBST buffer [0.1% Tween-20 in PBS], the wells were blocked with 250 μl 3% BSA in PBST buffer with shaking at RT for 1-6 h and washed three more times with 250 μl PBST buffer. From the cell lysate plates thawed in the fridge, in each case 100 μl of lysate were transferred into the coated wells of the ELISA plates, and the plates were incubated with shaking at 4° C. overnight. The plates were washed three times with in each case 250 μl of PBST buffer, and 100 μl of a 1:5000 dilution of the anti-phosphotyrosine HRP antibody in 3% Prionex (Calbiochem, #529600) in PBST were then pipetted into each well and the plates were incubated with shaking and protected from light at 4° C. overnight. […]

SMILES | pIC50 [1] | pIC50 (endogenous Tie2 receptor)
Cc1ccc(NC(=O)c2cc(-n3ccnc3C)cc(C(F)(F)F)c2)cc1-n1ccn2nc(-c3cn[nH]c3)cc12 [Example 6, 3-(2-Methyl-1H-imidazol-1-yl)-N-{4-methyl-3-[6-(1H-pyrazol-4-yl)-1H-imidazo[1,2-b]pyrazol-1-yl]phenyl}-5-(trifluoromethyl)benzamide] | 8.30 | 7.77
Cc1ccc(NC(=O)c2cc(C#N)cc(S(F)(F)(F)(F)F)c2)cc1-n1cc(C)n2nc(-c3cn[nH]c3)cc12 [Example 12, 3-Cyano-N-{4-methyl-3-[3-methyl-6-(1H-pyrazol-4-yl)-1H-imidazo[1,2-b]pyrazol-1-yl]phenyl}-5-(pentafluoro-λ^6-sulphanyl)benzamide] | 9.15 | 8.33
Cc1ccc(NC(=O)c2cc(-n3ccnc3C)cc(S(F)(F)(F)(F)F)c2)cc1-n1ccn2nc(-c3cccnc3)cc12 [Example 16, 3-(2-Methyl-1H-imidazol-1-yl)-N-{4-methyl-3-[6-(pyridin-3-yl)-1H-imidazo[1,2-b]pyrazol-1-yl]-phenyl}-5-(pentafluoro-λ^6-sulphanyl)benzamide] | 9.15 | 8.49
Cc1ccc(NC(=O)c2cc(N3CCN(C)CC3)cc(S(F)(F)(F)(F)F)c2)cc1-n1ccn2nc(-c3cccnc3)cc12 [Example 18, 3-(4-Methylpiperazin-1-yl)-N-{4-methyl-3-[6-(pyridin-3-yl)-1H-imidazo[1,2-b]pyrazol-1-yl]-phenyl}-5-(pentafluoro-λ^6-sulphanyl)benzamide] | 9.15 | 7.96
Cc1ccc(NC(=O)c2cc(S(C)(=O)=O)cc(S(F)(F)(F)(F)F)c2)cc1-n1ccn2nc(-c3cccnc3)cc12 [Example 26, N-{4-Methyl-3-[6-(pyridin-3-yl)-1H-imidazo[1,2-b]pyrazol-1-yl]phenyl}-3-(methylsulphonyl)-5-(pentafluoro-λ^6-sulphanyl)benzamide] | 9.10 | 8.52
Cc1ccc(NC(=O)c2cc(C#N)cc(S(F)(F)(F)(F)F)c2)cc1-n1ccn2nc(-c3cccnc3)cc12 [Example 28, 3-Cyano-N-{4-methyl-3-[6-(pyridin-3-yl)-1H-imidazo[1,2-b]pyrazol-1-yl]phenyl}-5-(pentafluoro-λ^6-sulphanyl)benzamide] | 8.68 | 8.44
Cc1ccc(NC(=O)c2cc(C(C)(C)O)cc(S(F)(F)(F)(F)F)c2)cc1-n1ccn2nc(-c3cccnc3)cc12 [Example 32, 3-(2-Hydroxypropan-2-yl)-N-{4-methyl-3 [6-(pyridin-3-yl)-1H-imidazo[1,2-b]pyrazol-1-yl]-phenyl}-5-(pentafluoro-λ^6-sulphanyl)benzamide] | 9.40 | 8.68
Cc1ccc(NC(=O)c2cc(-n3ccnc3C)cc(C(F)(F)F)c2)cc1-n1ccn2nc(-c3cccnc3)cc12 [Example 40, 3-(2-Methyl-1H-imidazol-1-yl)-N-{4-methyl-3-[6-(pyridin-3-yl)-1H-imidazo[1,2-b]pyrazol-1-yl]-phenyl}-5-(trifluoromethyl)benzamide] | 9.30 | 8.64
Cc1ccc(NC(=O)c2cc(N3CCN(C)CC3)cc(C(C)(C)C)c2)cc1-n1ccn2nc(-c3cccnc3)cc12 [Example 48, 3-tert-Butyl-5-(4-methylpiperazin-1-yl)-N-{4-methyl-3-[6-(pyridin-3-yl)-1H-imidazo[1,2-b]-pyrazol-1-yl]phenyl}benzamide] | 9.52 | 8.19
Cc1ccc(NC(=O)c2cc(CN3CCCC3)cc(C(C)(C)C)c2)cc1-n1ccn2nc(-c3cccnc3)cc12 [Example 51, 3-tert-Butyl-N-{4-methyl-3-[6-(pyridin-3-yl)-1H-imidazo[1,2-b]pyrazol-1-yl]phenyl}-5-(pyrrolidin-1-ylmethyl)benzamide] | 9.15 | 8.06
CNc1cc(C(=O)Nc2ccc(C)c(-n3ccn4nc(-c5cccnc5)cc34)c2)cc(C(C)(C)C)n1 [Example 66, 2-tert-Butyl-6-(methylamino)-N-{4-methyl-3-[6-(pyridin-3-yl)-1H-imidazo[1,2-b]pyrazol-1-yl]-phenyl}isonicotinamide] | 8.10 | 7.34
Cc1cc(C)c(-n2ccn3nc(-c4cccnc4)cc23)cc1NC(=O)c1cccc(S(F)(F)(F)(F)F)c1 [Example 73, N-{2,4-Dimethyl-5-[6-(pyridin-3-yl)-1H-imidazo[1,2-b]pyrazol-1-yl]phenyl}-3-(pentafluoro-λ^6-sulphanyl)benzamide] | 9.52 | 9.10
Cc1cc(C)c(-n2ccn3nc(-c4cccnc4)cc23)cc1NC(=O)c1cc(C#N)cc(S(F)(F)(F)(F)F)c1 [Example 74, 3-Cyano-N-{2,4-dimethyl-5-[6-(pyridin-3-yl)-1H-imidazo[1,2-b]pyrazol-1-yl]phenyl}-5-(pentafluoro-λ^6-sulphanyl)benzamide] | 9.30 | 9.22
Cc1cc(F)c(NC(=O)c2cc(C#N)cc(S(F)(F)(F)(F)F)c2)cc1-n1ccn2nc(-c3cccnc3)cc12 [Example 75, 3-Cyano-N-{2-fluoro-4-methyl-5-[6-(pyridin-3-yl)-1H-imidazo[1,2-b]pyrazol-1-yl]phenyl}-5-(pentafluoro-λ^6-sulphanyl)benzamide] | 9.30 | 8.77
Cc1ccc(-n2ccn3nc(-c4cccnc4)cc23)cc1NC(=O)c1cc(C#N)cc(S(F)(F)(F)(F)F)c1 [Example 77] | 7.89 | 8.06
Cc1ccc(NC(=O)c2cc(F)cc(S(F)(F)(F)(F)F)c2)cc1-n1ccn2nc(-c3cccnc3)cc12 [Example 88, 3-Fluoro-N-{4-methyl-3-[6-(pyridin-3-yl)-1H-imidazo[1,2-b]pyrazol-1-yl]phenyl}-5-(pentafluoro-λ^6-sulphanyl)benzamide] | 7.64 | 7.39
Cc1cc(NC(=O)c2cc(C#N)cc(S(F)(F)(F)(F)F)c2)cc(-n2ccn3nc(-c4cccnc4)cc23)c1C [Example 102, 3-Cyano-N-{3,4-dimethyl-5-[6-(pyridin-3-yl)-1H-imidazo[1,2-b]pyrazol-1-yl]phenyl}-5-(pentafluoro-λ^6-sulphanyl)benzamide] | 7.72 | 7.74
Cc1cc(C)c(-n2ccn3nc(-c4cccnc4)cc23)cc1NC(=O)c1cc(F)cc(S(F)(F)(F)(F)F)c1 [Example 107, N-{2,4-Dimethyl-5-[6-(pyridin-3-yl)-1H-imidazo[1,2-b]pyrazol-1-yl]phenyl}-3-fluoro-5-(pentafluoro-λ^6-sulphanyl)benzamide] | 9.22 | 9.05
COCc1cc(C(=O)Nc2cc(-n3ccn4nc(-c5cccnc5)cc34)c(C)cc2C)cc(S(F)(F)(F)(F)F)c1 [Example 112, N-{2,4-Dimethyl-5-[6-(pyridin-3-yl)-1H-imidazo[1,2-b]pyrazol-1-yl]phenyl}-3-(methoxymethyl)-5-(pentafluoro-λ^6-sulphanyl)benzamide] | 9.15 | 8.85
